Results taken from patent US20090252717A1, “Compositions and Methods for Treating Polyglutamine-Expansion Neurodegenerative Diseases” (priority 2006, published 2009).
Entries after “also recorded” stand apart in the source; their conditions may differ.

Experiments:
[1] = test system: polyQ-Htt-induced inhibition of fast axonal transport; assay: Vesicle motility assay in isolated squid axoplasm, co-perfusion with polyQ-Htt; format: cell-based, squid Loligo pealeii; conditions: co-perfused with polyQ-Htt, concentration not given
Description: (§1) Genes encoding human wild-type Huntingtin (Htt) (i.e., Q20, residues 1-548; Szebenyi, et al. (2003) supra) and polyQ-expanded Htt (i.e., Q46, residues 1-949; Qin, et al. (2004) J. Neurosci. 24(1):269-81) were cloned into the pcDNA.3 vector and produced by in vitro transcription/translation as described for the androgen receptor. Alternatively, shorter constructs (Htt exon1) were expressed in E. coli as GST-tagged proteins.
(§2) Squid Axoplasm. Isolated squid axoplasm represents a unique experimental system to evaluate axonal-specific effects and pathogenic mechanisms. This model was instrumental in the original discovery of kinesin-1 (Brady (1985) Nature 317:73-75, novel pathways for fast axonal transport (Morfini, et al. (2002) supra; Morfini, et al. (2004) supra), and axonal-specific phosphorylation events (Grant & Pant (2000) J. Neurocytol. 29:843-72). Bidirectional membrane-bound organelle movements are observed with properties unchanged from intact axons for hours after removal of plasma membrane (Brady, et al. (1982) Science 218:1129-1131). Video-enhanced microscopic techniques allow quantitative analysis of membrane-bound organelle movement in fast axonal transport. […]
Motility Studies in Isolated Axoplasm. […] Preparations were analyzed on a ZEISS AXIOMAT with a 100×, 1.3 n.a. objective, and DIC optics. […]

[2] = test system: polyQ-AR-induced inhibition of fast axonal transport; assay: Vesicle motility assay in isolated squid axoplasm, co-perfusion with polyQ-AR; format: cell-based, squid Loligo pealeii
Experimental: (§3) Recombinant Polypeptides. Wild-type androgen receptor and polyQ-AR polypeptides were produced by in vitro transcription/translation (TNT T7-Coupled Reticulocyte Lysate System; Promega, Madison, Wis.) according to manufacturer's protocols. Typically, 1.8 μg of plasmid was transcribed in 50 μl reaction mix. To assess protein levels, parallel reactions were performed incorporating ^35S-labeled methionine (Amersham) or quantitative immunoblots were performed. Protein concentrations were typically 0.2-0.5 nM. In vitro translated androgen receptor has been characterized and shown to be functional (Kuiper, et al. (1993) Biochem. J. 296(Pt 1):161-7). In vitro translation products were briefly centrifuged to eliminate translation machinery, and supernatants frozen in liquid N2 until used.
as §2, with “transport. Typical kinesin-dependent transport rates are 1.5-2.0 μm/s, whereas retrograde, cytoplasmic dynein-dependent rates are 1-1.3 μm/s in perfused axoplasms. These rates are maintained with little (<10%) or no reduction for >1 hour after perfusion with control buffer (Brady, et al. (1982) supra).” for “transport.”
(§4) Motility Studies in Isolated Axoplasm. […] Preparations were analyzed on a ZEISS AXIOMAT with a 100×, 1.3 n.a. objective, and DIC optics. […] Organelle velocities were measured with a Photonics Microscopy C2117 video manipulator (Hamamatsu).

[3] = test system: wild-type androgen receptor SH-SY5Y cells; assay: Neurite outgrowth of differentiated SH-SY5Y cells expressing wild-type androgen receptor; format: cell-based, human; conditions: 10 μM
Experimental: (§5) SH-SY5Y Cell Culture and Pharmacological Inhibition. Androgen receptor constructs containing wild-type androgen receptor (Q20) and pathogenic androgen receptor (Q56) tracts were prepared and stably transfected into SH-SY5Y human neuroblastoma cells (Avila, et al. (2003) Exp. Biol. Med. (Maywood) 228:982-90). Wild-type and 902-6 cells (expressing both full-length polyQ-AR and a truncated N-terminal androgen receptor fragment (≈25 kD) that accumulated in cytoplasm) were grown and differentiated (Szebenyi, et al. (2003) supra). Cells were plated at densities of 10,000 cells/cm^2 on 10-cm tissue culture dishes for biochemical studies, and at 3000-5000 cells/cm^2 on 4-well tissue-tech chamber slides (Becton-Dickinson, Mountain View, Calif.) for immunocytochemistry and morphometric studies. For inhibitor studies, cells were differentiated with 10 μM retinoic acid in serum for 5-6 days, and then switched to serum-free medium supplemented with 25 ng/ml BDNF (Alomone Laboratories, Jerusalem, Israel) with or without SB203580 inhibitor. Cell morphologies were evaluated after 3 days in BDNF±SB203580 (Szebenyi, et al. (2003) supra).

[4] = test system: 902-6 SH-SY5Y cells (polyQ-AR); assay: Neurite outgrowth of differentiated SH-SY5Y cells expressing polyQ-AR; format: cell-based, human
Experimental: as §5

[5] = test system: p38α, p38β, JNK2, and JNK3; conditions: cited from earlier work
fast axonal transport [6] = conditions: cited from earlier work
kinesin-1 = assay: Kinesin-1 ATPase assay; format: biochemical, rat; conditions: in vitro, up to equimolar levels of androgen receptor and kinesin-1
Experimental: Kinesin-1 ATPase Assays. Kinesin-1 basal and microtubule-activated ATPase activity was assayed according to known methods (Morfini, et al. (2002) supra; Tsai, et al. (2000) Mol. Biol. Cell 11:2161-2173). Briefly, purified rat brain kinesin and in vitro-translated androgen receptor constructs were incubated with or without TAXOL-stabilized MAP-free microtubules (1 mg/ml). Assays were started by addition of 1 mCi γ-^32P ATP (ICN Biochemicals, Costa Mesa, Calif.) and incubated for 25 minutes at 37° C. Reactions were stopped with 10% SDS and aliquots spotted on PEI-cellulose plates. Chromatograms were developed in 0.5 M LiCl/1 M formic acid and spots for ^32P and γ-^32P ATP counted to obtain percent of total ^32P recovered as free phosphate.

[7] = test system: neurofilament phosphorylation; assay: Neurofilament phosphorylation in squid axoplasm (immunoblot, SMI32); format: cell-based; conditions: axoplasm incubated with protein
Experimental: Phosphorylation Studies in Squid Axoplasm. Three to four axoplasms were triturated in KB buffer (KB: 10 mM HEPES pH 7.4, 10 mM MgCl2, 1 mM DTT) and aliquoted. Individual reactions with corresponding in vitro-translated androgen receptor constructs were started by adding radiolabeled ATP to 100 μM. Reactions were done in 50 μl, incubated for 20 minutes at room temperature and stopped with 50 μl of 2× sample buffer. Lysates were separated by SDS-PAGE and analyzed by autoradiography. For certain indicated assays, 2 axoplasms per tube were incubated in X/2 buffer for 50 minutes with corresponding in vitro-translated androgen receptor construct, then 50 μl of 2× sample buffer was added and samples analyzed by immunoblot.

fast axonal transport [8] = assay: Vesicle motility assay in isolated squid axoplasm, perfusion of recombinant protein alone; format: cell-based, squid Loligo pealeii; conditions: protein alone
Experimental: as §3, §1
as §2, with “transport. Typical kinesin-dependent transport rates are 1.5-2.0 μm/s, whereas retrograde, cytoplasmic dynein-dependent rates are 1-1.3 μm/s in perfused axoplasms. These rates are maintained with little (<10%) or no reduction for >1 hour after perfusion with control buffer (Brady, et al. (1982) supra). The lack of permeability barriers allows perfusion of the axoplasm with a variety of effector molecules at known concentrations. Effectors of interest include nucleotides, pharmacological inhibitors, recombinant polypeptides, and antibodies.” for “transport.”
as §4

[9] = co-perfused with polyQ-AR, concentration not given

Molecule | effect on polyQ-Htt-induced inhibition of fast axonal transport [1] | effect on polyQ-AR-induced inhibition of fast axonal transport [2, 9] | effect on basal and microtubule-activated ATPase activity of kinesin-1 (kinesin-1) | mean fast axonal transport rate (fast axonal transport [8]; 20-30 minutes) [μm/sec] | mean fast axonal transport rate (fast axonal transport [8]; 40-50 minutes) [μm/sec] | further results
CCSCc1ccc2c(c1)c1c3c(c4c5cc(CSCC)ccc5n5c4c1n2[C@H]1C[C@](O)(C(=O)OC)[C@]5(C)O1)CNC3=O [CEP-1347] | prevented the effects of polyQ-Htt and polyQ-AR on fast axonal transport | prevented the effects of polyQ-Htt and polyQ-AR on fast axonal transport |  |  |  | 
C[S+]([O-])c1ccc(-c2nc(-c3ccncc3)c(-c3ccc(F)cc3)[nH]2)cc1 (stereo not shown) [SB203580] | prevented the effects of polyQ-Htt on fast axonal transport |  |  |  |  | neurite outgrowth [3]: increasing neurite outgrowth; effect on polyQ-AR-induced inhibition of fast axonal transport ([2]; 10 μM co-perfused with polyQ-AR): completely blocked the inhibition of fast axonal transport in both anterograde and retrograde directions; proportion of cells with long neurites (>80 μm in length) ([4]; 10 μM or 20 μM): dramatic and dose-dependent increase in the proportion of cells that extended long neurites; also recorded: significant increase in the number of polyQ-AR cells extending long neurites; neurite length / outgrowth ([4]; 10 μM, 3 days BDNF): increasing neurite outgrowth; also recorded: increased in length; neurite length / morphology distribution ([4]; 20 μM, 3 days BDNF): nearly indistinguishable between wild-type and 902-6 cells; also recorded: indistinguishable from untreated wild-type androgen receptor cells; effect on inhibition of neurite outgrowth by polyQ-AR ([4]; added to culture media, 3 days BDNF): overcame inhibition of neurite outgrowth by polyQ-AR; also recorded: reverses inhibition of neurite formation by polyQ-AR; kinases inhibited [5]: inhibits p38α, p38β, JNK2, and JNK3
C=C1[C@@H](O)[C@@H]2O[C@]3(CC[C@H](/C=C/[C@@H](C)[C@@H]4CC(C)=C[C@@]5(O[C@H](C[C@@](C)(O)C(=O)O)CC[C@H]5O)O4)O3)CC[C@H]2O[C@@H]1[C@@H](O)C[C@H](C)[C@H]1O[C@@]2(CCCCO2)CC[C@H]1C [okadaic acid] |  | failed to prevent polyQ-AR-induced fast axonal transport inhibition |  |  |  | 
polyQ-AR: polyglutamine-expanded androgen receptor (Q56) produced by in vitro transcription/translation |  |  | failed to affect either basal or microtubule-activated ATPase activity of kinesin-1 | 1.25±0.03 | 1.08±0.02 | level that inhibits fast axonal transport (fast axonal transport [6]): < 1 nM; SMI32 immunoreactivity [7]: reduced
wild-type androgen receptor: wild-type androgen receptor (Q20) produced by in vitro transcription/translation |  |  | not affected | 1.71±0.03 | 1.77±0.04 | 
